Results from patent US12227517B2, “Pyridazinyl-thiazolecarboxamide compound” (Astellas Pharma Inc., priority 2019, dated 2025).
Counter-ions that a name gives are not always drawn.

The compounds below were run against human recombinant DGK ξ (Homo sapiens (Human), UniProt Q13574) (assay: Evaluation of DGK ξ inhibitory effect (ADP-Glo Kinase Assay)).
Type: biochemical
Procedure: Test Example 1: Evaluation of DGK ξ Inhibitory Effect
The inhibitory effect of a test compound on human recombinant DGK ξ (Carna Biosciences, Inc., 12-410-20N) was examined by the following method in which detection is performed with ADP-Glo™ Kinase Assay (Promega Corporation).
To a 384-well plate (Greiner Bio-One Co., Ltd.), 3 μL of a […] dissolved in an assay buffer (40 mM Tris-HCl pH 7.5, 10 mM MgCl2, 1 mM dithiothreitol (DTT) and 0.1 mg/mL bovine serum albumin (BSA)) (90 ng/mL) was added, and 3 μL of the test compound diluted with the same assay buffer was added so that an intended final concentration was obtained. The mixture was left standing at room temperature for 15 minutes, 3 μL of a substrate (150 μM 1-oleoyl-2-acetyl-sn-glycerol (Sigma-Aldrich Co. LLC.), 480 μM phosphatidylserine (Avanti Polar Lipids, Inc.) and 150 μM UltraPure-ATP (attached to ADP-Glo)) was then added, and the mixture was left standing at room temperature for 30 minutes to react. Thereafter, 3 μL of an ADP-Glo Reagent was added, and the mixture was left standing at room temperature for 40 minutes to stop the enzyme reaction. Further, 6 μL of a Kinase-Detection Reagent was added, the mixture was left standing at room temperature for 30 minutes, and the luminescence was then measured using ARVO X3 (PerkinElmer, Inc.). The half maximal inhibitory concentration (IC50) was calculated by Sigmoid-Emax model non-linear regression analysis, where the signal value in solvent treatment was set to 0% inhibition and the signal value without addition of the DGK ξ enzyme was set to 100% inhibition. […] In the table, Ex represents the number of each Example described below. Also, in the table, compound C (cpd. C) represents the test compound of the Example 199 described in the international publication WO 2008/054702.

Sequence of human recombinant DGK ξ (Q13574 whole entry): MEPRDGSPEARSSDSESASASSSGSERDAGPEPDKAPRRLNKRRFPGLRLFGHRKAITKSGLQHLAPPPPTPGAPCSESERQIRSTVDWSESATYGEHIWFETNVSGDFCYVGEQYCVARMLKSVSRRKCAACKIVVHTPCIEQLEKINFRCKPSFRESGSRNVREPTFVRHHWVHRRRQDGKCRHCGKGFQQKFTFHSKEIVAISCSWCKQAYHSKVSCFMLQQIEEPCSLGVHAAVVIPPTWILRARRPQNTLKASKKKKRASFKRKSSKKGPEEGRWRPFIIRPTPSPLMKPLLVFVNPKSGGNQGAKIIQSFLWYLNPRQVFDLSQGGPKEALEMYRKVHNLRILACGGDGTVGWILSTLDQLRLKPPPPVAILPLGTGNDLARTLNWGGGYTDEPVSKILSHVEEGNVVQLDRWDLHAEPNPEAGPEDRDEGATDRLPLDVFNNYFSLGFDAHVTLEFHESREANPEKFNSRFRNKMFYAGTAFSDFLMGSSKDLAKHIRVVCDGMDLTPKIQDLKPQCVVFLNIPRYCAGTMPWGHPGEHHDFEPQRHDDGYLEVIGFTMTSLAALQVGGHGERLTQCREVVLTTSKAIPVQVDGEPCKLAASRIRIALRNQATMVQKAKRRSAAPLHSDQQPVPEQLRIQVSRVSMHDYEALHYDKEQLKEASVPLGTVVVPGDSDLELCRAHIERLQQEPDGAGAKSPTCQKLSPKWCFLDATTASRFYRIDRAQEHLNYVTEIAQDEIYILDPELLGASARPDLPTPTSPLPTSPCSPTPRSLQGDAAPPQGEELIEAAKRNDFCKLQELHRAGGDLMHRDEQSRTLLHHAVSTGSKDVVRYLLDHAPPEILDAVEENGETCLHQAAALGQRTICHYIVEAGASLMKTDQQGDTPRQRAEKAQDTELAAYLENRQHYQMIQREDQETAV

| IC50 [nM] | SMILES |
| --- | --- |
| 42 | NC[C@@H]1CCCN(c2c(NC(=O)c3csc(-c4ccnnc4)n3)ccc(-c3ccccc3)c2C(F)(F)F)C1 [Example 28] |
| 426 | CNC[C@H]1CN(c2c(NC(=O)c3csc(-c4ccnnc4)n3)ccc(Oc3ccccc3)c2C(F)(F)F)CCO1 [Example 29] |
| 39 | NCC[C@@H]1CN(c2c(NC(=O)c3csc(-c4ccnnc4)n3)ccc(Oc3ccccc3)c2C(F)(F)F)CCO1 [Example 30] |
| 31 | NC[C@H]1CCCN(c2c(NC(=O)c3csc(-c4ccnnc4)n3)ccc(Oc3ccccc3)c2C(F)(F)F)C1 [Example 32] |
| 2 | NC[C@@H]1CCCN(c2c(NC(=O)c3csc(-c4ccnnc4)n3)ccc(Oc3ccccc3Cl)c2C(F)(F)F)C1 [Example 35] |
| 13 | CNC[C@@H]1CCCN(c2c(NC(=O)c3csc(-c4ccnnc4)n3)ccc(Oc3ccccc3Cl)c2C(F)(F)F)C1 [Example 36] |
| 26 | CNC[C@H]1CCCN1c1c(NC(=O)c2csc(-c3ccnnc3)n2)ccc(Oc2ccccc2)c1C(F)(F)F [Example 37] |
| 3 | N#Cc1ccccc1Oc1ccc(NC(=O)c2csc(-c3ccnnc3)n2)c(N2CCC[C@@H](CN)C2)c1C(F)(F)F [Example 38] |
| 7 | NC[C@@H]1CCCN(c2c(NC(=O)c3csc(-c4ccnnc4)n3)ccc(Oc3ccccn3)c2C(F)(F)F)C1 [Example 39] |
| 50 | NC[C@@H]1CCCN(c2c(NC(=O)c3csc(-c4ccnnc4)n3)ccc(Oc3cccc(Cl)c3)c2C(F)(F)F)C1 [Example 40] |
| 11 | NC[C@@H]1CCCN(c2c(NC(=O)c3csc(-c4ccnnc4)n3)ccc(Oc3ccc(F)cc3)c2C(F)(F)F)C1 [Example 41] |
| 23 | O=C(Nc1ccc(Oc2ccccc2)c(C(F)(F)F)c1N1CCCC2(CCNCC2)C1)c1csc(-c2ccnnc2)n1 [Example 42] |
| 36 | CNC[C@@H]1CCCN(c2c(NC(=O)c3csc(-c4ccnnc4)n3)ccc(Oc3ccc(F)cc3)c2C(F)(F)F)C1 [Example 43] |
| 19 | Cn1nccc1Oc1ccc(NC(=O)c2csc(-c3ccnnc3)n2)c(N2CCC[C@@H](CN)C2)c1C(F)(F)F [Example 44] |
| 24 | NCC[C@H]1CCCN1c1c(NC(=O)c2csc(-c3ccnnc3)n2)ccc(Oc2ccccc2)c1C(F)(F)F [Example 45] |
| 40 | CNCC[C@H]1CCCN1c1c(NC(=O)c2csc(-c3ccnnc3)n2)ccc(Oc2ccccc2)c1C(F)(F)F [Example 46] |
| 147 | NC[C@@H]1CCCN(c2c(NC(=O)c3csc(-c4ccnnc4)n3)ccc(N3CCCC3)c2C(F)(F)F)C1 [Example 47] |
| 10 | CNC[C@@H]1CCCN(c2c(NC(=O)c3csc(-c4ccnnc4)n3)ccc(Oc3ccccc3)c2C(F)(F)F)C1 [Example 49, N-[2-{(3S)-3-[(methylamino)methyl]piperidin-1-yl}-4-phenoxy-3-(trifluoromethyl)phenyl]-2-(pyridazin-4-yl)-1,3-thiazole-4-carboxamide] |
| 23 | CNC[C@H]1CCCN(c2c(NC(=O)c3csc(-c4ccnnc4)n3)ccc(Oc3ccccc3)c2C(F)(F)F)C1 [Example 50] |
| 16 | CNC[C@@H]1CCCN(c2c(NC(=O)c3csc(-c4ccnnc4)n3)ccc(Oc3cccc(F)c3)c2C(F)(F)F)C1 [Example 51] |
| 23 | CCNC[C@@H]1CCCN(c2c(NC(=O)c3csc(-c4ccnnc4)n3)ccc(Oc3cccc(F)c3)c2C(F)(F)F)C1 [Example 52] |
| 27 | COCCNC[C@@H]1CCCN(c2c(NC(=O)c3csc(-c4ccnnc4)n3)ccc(Oc3cccc(F)c3)c2C(F)(F)F)C1 [Example 53] |
| 17 | CN(C)C[C@H]1CCCN(c2c(NC(=O)c3csc(-c4ccnnc4)n3)ccc(Oc3ccccc3)c2C(F)(F)F)C1 [Example 54, N-[2-{(3R)-3-[(dimethylamino)methyl]piperidin-1-yl}-4-phenoxy-3-(trifluoromethyl)phenyl]-2-(pyridazin-4-yl)-1,3-thiazole-4-carboxamide dihydrochloride] |
| 99 | CN(C)C[C@@H]1CCCN(c2c(NC(=O)c3csc(-c4ccnnc4)n3)ccc(Oc3ccccc3)c2C(F)(F)F)C1 [Example 55] |
| 29 | CN(C)C[C@@H]1CN(c2c(NC(=O)c3csc(-c4ccnnc4)n3)ccc(Oc3ccccc3)c2C(F)(F)F)CCO1 [Example 56] |

| IC50 [nM] | SMILES |
| --- | --- |
| 240 | CN(C)C[C@@H]1CCCN(c2c(NC(=O)c3csc(-c4ccnnc4)n3)cc(F)c(Oc3ccccc3)c2F)C1 [Example 57] |
| 144 | CN(C)CC[C@@H]1CN(c2c(NC(=O)c3csc(-c4ccnnc4)n3)ccc(Oc3ccccc3)c2C(F)(F)F)CCO1 [Example 58] |
| 3 | O=C(Nc1ccc(Oc2ccccc2)c(C(F)(F)F)c1N1CCOC2(CCN(CCO)CC2)C1)c1csc(-c2ccnnc2)n1 [Example 60] |
| 3 | COCCN1CCC2(CCCN(c3c(NC(=O)c4csc(-c5ccnnc5)n4)ccc(Oc4ccccc4)c3C(F)(F)F)C2)CC1 [Example 61] |
| 10 | O=C(Nc1ccc(Oc2ccccc2)c(C(F)(F)F)c1N1CCOC2(CCN(C3COC3)CC2)C1)c1csc(-c2ccnnc2)n1 [Example 62, N-{2-[9-(oxetan-3-yl)-1-oxa-4,9-diazaspiro[5.5]undecan-4-yl]-4-phenoxy-3-(trifluoromethyl)phenyl}-2-(pyridazin-4-yl)-1,3-thiazole-4-carboxamide] |
| 429 | O=C(Nc1ccc(Oc2ccccc2F)c(C(F)(F)F)c1N1CCC[C@@H]1CNC1COC1)c1csc(-c2ccnnc2)n1 [Example 63, N-[4-(2-fluorophenoxy)-2-[(2R)-2-{[(oxetan-3-yl)amino]methyl}pyrrolidin-1-yl]-3-(trifluoromethyl)phenyl]-2-(pyridazin-4-yl)-1,3-thiazole-4-carboxamide] |
| 30 | CNCC1CCCN(c2c(NC(=O)c3csc(-c4ccnnc4)n3)ccc(Oc3ccccc3)c2C(F)(F)F)C1 (stereo not shown) [Example 64, N-[2-{3-[(methylamino)methyl]piperidin-1-yl}-4-phenoxy-3-(trifluoromethyl)phenyl]-2-(pyridazin-4-yl)-1,3-thiazole-4-carboxamide] |
| 12 | CNC[C@H]1CN(c2c(NC(=O)c3csc(-c4ccnnc4)n3)ccc(Oc3ccccc3)c2C)CCN1C [Example 65] |
| 32 | NC[C@@H]1CCCN(c2c(NC(=O)c3csc(-c4ccnnc4)n3)ccc(S(=O)(=O)c3ccccc3)c2C(F)(F)F)C1 [Example 66] |
| 12 | NC[C@@H]1CCCN(c2c(NC(=O)c3csc(-c4ccnnc4)n3)ccc(Oc3ccccc3)c2C2CC2)C1 [Example 67] |
| 5 | COc1c(Oc2ccccc2)ccc(NC(=O)c2csc(-c3ccnnc3)n2)c1N1CCC[C@@H](CN)C1 [Example 68] |
| 7 | NC[C@@H]1CCCN(c2c(NC(=O)c3csc(-c4ccnnc4)n3)ccc(C(=O)c3ccccc3)c2C(F)(F)F)C1 [Example 70] |
| 44 | Cc1c(OC2CC2)ccc(NC(=O)c2csc(-c3ccnnc3)n2)c1N1CCC[C@@H](CN)C1 [Example 71] |
| 18 | Cc1c(Oc2ccccc2)ccc(NC(=O)c2csc(-c3ccnnc3)n2)c1N1CCC[C@@H](CN)C1 [Example 72] |
| 0.7 | CN[C@@H]1CCN2CCN(c3c(NC(=O)c4csc(-c5ccnnc5)n4)ccc(Oc4ccccc4)c3C(F)(F)F)C[C@@H]12 [Example 73] |
| 41 | N[C@H]1CCN2CCN(c3c(NC(=O)c4csc(-c5ccnnc5)n4)ccc(Oc4ccccc4)c3C(F)(F)F)C[C@@H]12 [Example 74] |
| 6 | N[C@H]1CCN2CCN(c3c(NC(=O)c4csc(-c5ccnnc5)n4)ccc(Oc4ccccc4)c3C(F)(F)F)C[C@H]12 [Example 75] |
| 6 | N[C@@H]1CCN2CCN(c3c(NC(=O)c4csc(-c5ccnnc5)n4)ccc(OC4CC4)c3C(F)(F)F)C[C@@H]12 [Example 76] |
| 2 | CN[C@@H]1CCN2CCN(c3c(NC(=O)c4csc(-c5ccnnc5)n4)ccc(OC4CC4)c3C(F)(F)F)C[C@@H]12 [Example 77] |
| 47 | N[C@@H]1CCN2CCN(c3c(NC(=O)c4csc(-c5ccnnc5)n4)ccc(Oc4ccccc4)c3C(F)(F)F)C[C@H]12 [Example 79] |
| 152 | CN(C)[C@H]1CCN2CCN(c3c(NC(=O)c4csc(-c5ccnnc5)n4)ccc(Oc4ccccc4)c3C(F)(F)F)C[C@H]12 [Example 81] |
| 3 | CN(C)[C@@H]1CCN2CCN(c3c(NC(=O)c4csc(-c5ccnnc5)n4)ccc(OC4CC4)c3C(F)(F)F)C[C@@H]12 [Example 82] |
| 5 | CNC[C@@H]1CCCN(c2c(NC(=O)c3csc(-c4ccnnc4)n3)ccc(Oc3ccccc3F)c2C(F)(F)F)C1 [Example 83, N-[4-(2-fluorophenoxy)-2-{(3S)-3-[(methylamino)methyl]piperidin-1-yl}-3-(trifluoromethyl)phenyl]-2-(pyridazin-4-yl)-1,3-thiazole-4-carboxamide mono[(2E)-but-2-enedioate]] |
| 6 | NC[C@@H]1CCCN(c2c(NC(=O)c3csc(-c4ccnnc4)n3)ccc(Oc3ccccc3)c2C(F)(F)F)C1 [Example 84, N-{2-[(3S)-3-(aminomethyl)piperidin-1-yl]-4-phenoxy-3-(trifluoromethyl)phenyl}-2-(pyridazin-4-yl)-1,3-thiazole-4-carboxamide mono[(2E)-but-2-enedioate]] |
